In patent US10696682B2, “CDK inhibitors” (G1 Therapeutics, Inc., priority 2010, dated 2020):

Target: CDK4/cyclinD (Homo sapiens (Human), UniProt P11802)
Assay: CDK4/CyclinD kinase enzymatic assay (Caliper LabChip)
Assay type: biochemical
Settings: tested as HCl salts, 12-point dose response, at the Km for ATP, three hours
Experimental: Kinase enzymatic reactions were performed in 384-well microplates using a 12-channel Caliper LabChip instrument as a detection device. […] As substrate and product are separated, two peaks of fluorescence are observed. Change in the relative fluorescence intensity of the substrate and product peaks is the parameter measured, reflecting enzyme activity. In the presence of an inhibitor, the ratio between product and substrate is altered. The signal of the product decreases, while the signal of the substrate increases.
Potential inhibitor compounds (as HCl salts) were tested using 12-point dose response curves in […] at the Km for ATP. The IC50 of each compound was determined using GraphPad Prism.

CDK4/cyclinD, sequence (P11802 whole entry, species assumed): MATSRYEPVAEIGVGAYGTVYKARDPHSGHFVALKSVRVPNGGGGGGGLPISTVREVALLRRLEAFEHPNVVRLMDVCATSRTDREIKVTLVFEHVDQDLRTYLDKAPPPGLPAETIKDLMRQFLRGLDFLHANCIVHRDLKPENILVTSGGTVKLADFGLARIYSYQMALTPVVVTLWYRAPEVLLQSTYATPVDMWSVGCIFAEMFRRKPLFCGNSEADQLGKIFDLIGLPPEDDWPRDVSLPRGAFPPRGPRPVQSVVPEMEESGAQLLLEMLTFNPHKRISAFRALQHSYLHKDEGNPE
CDK4/cyclinD, sequence (P24385 whole entry partner, species assumed): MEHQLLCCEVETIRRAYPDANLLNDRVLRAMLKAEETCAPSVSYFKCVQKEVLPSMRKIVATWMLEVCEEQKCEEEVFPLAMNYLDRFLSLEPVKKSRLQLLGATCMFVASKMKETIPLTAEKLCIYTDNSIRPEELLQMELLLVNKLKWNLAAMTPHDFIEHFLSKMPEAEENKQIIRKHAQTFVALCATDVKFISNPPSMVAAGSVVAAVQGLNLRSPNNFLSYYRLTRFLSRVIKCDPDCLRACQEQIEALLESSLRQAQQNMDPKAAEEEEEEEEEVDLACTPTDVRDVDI

IC50: 1.05 µM
Structure (SMILES): O=C1NCCn2c1cc1cnc(Nc3ccc(N4CCNCC4)cn3)nc12 [Compound 3]
